Literature values in patent publication US20050182026A1, “Use of phospholipids in peritoneal dialysis” (priority 2002, published 2005).

Legend:
[1] = system: respiratory distress syndrome; settings: various physical forms, used for two decades in newborns

In the case of `CCCCCCCCCCCCCCCC(=O)OC[C@H](COP(=O)([O-])OCC[N+](C)(C)C)OC(=O)CCCCCCCCCCCCCCC` [DPPC, dipalmitoylphosphatidylcholine], the “safety in clinical use” value [1] is listed as “complete safety”, the solubility in water is listed as “highly insoluble in water” and the critical micelle concentration (in water) is listed as 5×10^−10 Molar.
